Experimental data: paper PMC6138628, “Enhanced uptake of gH625 by blood brain barrier compared to liver in vivo: characterization of the mechanism by an in vitro model and implications for delivery” (Scientific Reports, 2018)
Residues, ends and D or L forms follow the SMILES beside them.

Columns and labels:
[1] = ANTS/DPX leakage assay; details: 0.1 mM lipid, 5 mM Hepes, 100 mM NaCl, pH 7.4, 37 °C, data not shown
Procedure: The ANTS/DPX experiment was used to evaluate leakage of encapsulated dyes induced by the peptide. The peptide in 5 mM Hepes and 100 mM NaCl at pH 7.4 was added to the stirred vesicle suspension (0.1 mM lipid) containing ANTS and DPX at 37 °C. Details of this assay have been previously reported.

[2] = test system: human neuroblastoma and glioblastoma astrocytoma; parameters: method as in PMID 25792823; details: human neuroblastoma and glioblastoma astrocytoma cells; cited from earlier work
[3] = Circular dichroism spectroscopy; assay type: physicochemical; details: CD, peptide 8 µM, P/L 0.08; for Helix content: [θ]222, according to Chakrabartty et al., lipid 100 µM, 5 mM phosphate buffer, room temperature
Procedure: The samples were vortexed and lyophilized overnight.
CD spectra were recorded at room temperature on a Jasco J-715 spectropolarimeter in a 0.1 cm quartz cell. The spectra are an average of 3 consecutive scans from 260 to 190 nm, recorded with a band width of 3 nm, a time constant of 16 s, and a scan rate of 10 nm/min. Spectra were recorded and corrected for the blank. Mean residue ellipticities (MRE) were calculated as MRE = Obsd/lcn (Obsd is the ellipticity measured in millidegrees, l is the path length of the cell in cm, c is the peptide concentration in mol/l, and n is the number of amino acid residues in the peptide). A solution of 8 µM of peptide with SUVs, was prepared as previously described. […] The percentage of helix was calculated from measurements of their mean residue ellipticity at 222 nm[44]. We used [ϑ]222 values of 0 and −40.000(1–2.5/n) deg cm^2 dmol^−1 per amino acid residue for 0% and 100% helicity; n is the number of amino acid residues. The ratio of the ellipticities at 222 and 208 nm were used to discriminate between monomeric and oligomeric states of helices. The experiment was performed before and after centrifugation to remove eventual precipitated peptides from solution.

[4] = Tryptophan quenching by acrylamide; assay type: physicochemical; details: peptide 4 µM, peptide/lipid 1/200, acrylamide up to 0.2 M, λex 295 nm, λem 340 nm
Procedure: A solution containing 4 µM of gH625 in the absence or presence of LUVs at a peptide/lipid molar ratio of 1/200, was titrated with the water-soluble quencher acrylamide (4 M mother solution). The maximal concentration of acrylamide in the samples is 0.2 M. Fluorescence was measured with λex 295 nm and λem 340 nm[43]. The data were analysed with the Stern-Volmer equation[43], F0/F = 1 + Ksv [Q], where F0 and F represent the fluorescence intensities in the absence and the presence of the quencher (Q), respectively. The Ksv is the Stern-Volmer quenching constant, and is correlated to the accessibility of the tryptophan residue to acrylamide. […] Ksv is thus determined by the amount of non-lipid-associated free peptide as well as the peptide fraction located on the surface of the bilayer.
The observed changes in the tryptophan emission upon binding to lipid vesicles indicate gH625 insertion into the hydrophobic region of the bilayers. We determined the accessibility of the tryptophan residues of membrane bound peptides towards acrylamide, a neutral, water-soluble quencher, which is unable to penetrate into the hydrophobic core of the lipid bilayer. In fact, tryptophan residues more deeply buried inside the membrane are less strongly quenched.

[5] = previous work; cited from earlier work
Source text: In general a high accumulation in the target tissue results in an improved therapeutic effect, while a large amount of drug distributed to non-target organs may cause unwanted toxicity and/or side effects. It is thus fundamental to reduce liver metabolism and renal clearance to produce prolonged blood circulation with an i ...

SMILES: CC[C@H](C)[C@H](NC(=O)[C@H](CC(C)C)NC(=O)[C@H](C)NC(=O)[C@H](CC(N)=O)NC(=O)[C@H](Cc1ccc(O)cc1)NC(=O)[C@H](Cc1c[nH]cn1)NC(=O)[C@H](C)NC(=O)[C@H](Cc1c[nH]c2ccccc12)NC(=O)[C@H](CCCNC(=N)N)NC(=O)[C@@H](NC(=O)[C@H](CC(C)C)NC(=O)[C@@H](NC(=O)[C@H](CO)NC(=O)[C@H](C)NC(=O)[C@H](CC(C)C)NC(=O)CNC(=O)[C@@H](N)Cc1c[nH]cn1)[C@@H](C)O)[C@@H](C)O)C(=O)N[C@@H](CCCNC(=N)N)C(=O)N[C@@H](C)C(=O)N[C@@H](Cc1ccccc1)C(N)=O [gH625] (H-HGLASTLTRWAHYNALIRAF-NH2)
- Leakage of encapsulated dyes (ANTS/DPX) ([1]; BBB mimicking LUVs): did not present any leakage
- Leakage of encapsulated dyes (ANTS/DPX) ([1]; liver mimicking LUVs): did not present any leakage
- Percentage of uptake [2]: 80–90%
- Helix content ([3]; BBB mimicking SUVs): 58%
- Helix content ([3]; liver mimicking SUVs): 40%
- Ratio θ222/θ208 (monomeric < 0.8, oligomeric > 1.0) ([3]; BBB mimicking SUVs): approximately 0.68
- Ratio θ222/θ208 (monomeric < 0.8, oligomeric > 1.0) ([3]; liver mimicking SUVs): ~0.45
- Stern-Volmer quenching constant (Ksv) ([4]; BBB mimicking LUVs): 2.05 ± 0.08 M⁻¹
- Stern-Volmer quenching constant (Ksv) ([4]; liver mimicking LUVs): 3.04 ± 0.06 M⁻¹
- Alterations of cell viability or maximal mitochondrial oxidative capacity linked to uptake [5]: not linked to alterations of cell viability or maximal mitochondrial oxidative capacity
